One test relates to HT29 cells. Kind of test: anti-proliferative activity using HT29 cells. It counts as cell-based, human. The method, then: (§1) Cytotoxicity was tested using CHO-K1 cells and anti-proliferative activity was examined using HT29 cells.
(§2) The effects were compared with Doxorubicin and Sodium butyrate.

Another test relates to CHO-K1 cells. Kind of test: cytotoxicity using CHO-K1 cells. It counts as cell-based, Chinese hamster. The following applies: Cricetulus griseus, CHO-K1 ovary sane cell line. Here is the method:
as §1, §2

Where two headings read alike, the source gives them in different places.

Consider `CCCC(=O)[O-].[Na+]` [Sodium butyrate], for which the IC50 (usually the point on the concentration scale where inhibition reaches its midpoint) in the test with HT29 cells (Homo sapiens, HT-29, read-out: IC50 (μM) for HT29) is 4890 µM. Consider `COc1cccc2c1C(=O)c1c(O)c3c(c(O)c1C2=O)C[C@@](O)(C(=O)CO)C[C@@H]3O[C@H]1C[C@H](N)[C@H](O)[C@H](C)O1` [Doxorubicin], for which the IC50 turned out to be 1.99 µM with CHO-K1 cells and 1.32 µM in the test with HT29 cells (HT-29, HT29 human colon adenocarcinoma, read-out: IC50 (μM) for HT29).

For the origin of these results see patent US8664186B2, “Stambomycin and derivatives, their production and their uses as drugs” (Universite de Lorraine, priority 2009, dated 2014).
